Test results reported in patent US20260345507A1, “COMPOSITIONS AND METHODS FOR DELIVERY OF RNA” (REJUVENATION TECHNOLOGIES, INC., priority 2022, published 2026).

What was measured:
P21 = assay: Senescence marker P21 in lung alveolar cells of bleomycin-treated mice; format: in vivo, mouse; details: following bleomycin treatment
Method: FIGS. 3-17 and FIGS. 20-21 depict experiments involving the use of a different 5 lipid LNP composition where lung fibrosis was induced in third generation (G3) TERT knock-out (KO) mice, which have telomere lengths that are similar to those of humans. Bleomycin was administered via oropharyngeal aspiration at 2.0 U/kg. For FIGS. 13-16, an initial dose of bleomycin was administered via oropharyngeal aspiration at 0.5 U/kg one week prior to the 2.0 U/kg dose. LNPs were formulated with firefly luciferase mRNA (Ctrl) or TERT mRNA (mouse SEQ ID NO: 2, including synthetic 5′ UTR (SEQ ID NO: 3), wt mTert coding sequence (SEQ ID NO: 4) and mouse alpha-globin 3′ UTR (SEQ ID NO: 5)) (referred to as “TERT mRNA LNP” herein or “TERT” or “TERT mRNA” in the figures) and the lipids in the ratios of Table 3. The DOTAP molar ratio is 2.27 times higher in the 5 lipid LNP of Table 3. Mice were dosed at 1.5 mg/kg twice a week for two weeks beginning on day 7 post bleomycin. Some mice received bleomycin, but not LNP treatment (No LNP), and control mice received saline instead of bleomycin and LNP treatment (No Bleo). Tissues were harvested on day 24 post bleomycin. Lungs were […]. […] Telomerase activity was measured in lung tissue lysate using the telomeric repeat amplification protocol (TRAP) assay. […]

[1] = Pharmacokinetics of 5-lipid LNP (DOTAP by LC-MS/MS); format: in vivo, mouse; set-up: Decay constant: unit not given here; details: 1.0 mg mRNA/kg; for half-life: mouse, 1 mg/kg
Method: Methods: LNPs were formulated using lipid molar ratios in Table 1 with mRNA encoding human telomerase. CD1 male mice were dosed at 1.0 mg mRNA/kg of body weight, and plasma and tissue were collected at time points 0 (<5 min) and 24 hours. DOTAP was measured using LC-MS/MS. mRNA was measured by qRT-PCR. “Liver Rest” is the liver sample excluding the left lobe.

[2] = Liver Left Lobe, dosed as 5-lipid LNP of Table 1, CD1 male mice
[3] = Liver Rest (liver excluding left lobe), 5-lipid LNP of Table 1, CD1 male mice
[4] = Lung Right Lobes, 5-lipid LNP of Table 1, CD1 male mice
[5] = Plasma, 5-lipid LNP of Table 1, CD1 male mice
[6] = Spleen, 5-lipid LNP of Table 1, CD1 male mice

Compound	senescence (P21) (P21)	Decay constant [1, 2]	Decay constant [1, 3]	Decay constant ([1]; Lung Left Lobe, 5-lipid LNP of Table 1, CD1 male mice)	Decay constant [1, 4]	Decay constant [1, 5]	Decay constant [1, 6]	half-life [1, 2] [h]	half-life [1, 3] [h]	half-life [1, 4] [h]	half-life [1, 5] [h]	half-life [1, 6] [h]
bleomycin	Increase in senescence											
CCCCCCCC/C=C\CCCCCCCC(=O)OCC(C[N+](C)(C)C)OC(=O)CCCCCCC/C=C\CCCCCCCC (stereo not drawn) [DOTAP, 1,2-dioleoyl-3-trimethylammonium-propane]		0.066	0.050	0.094	0.073	0.191	0.136	10.5	13.8	9.51	3.63	5.09
